Type in all cases: cell-based, human
Assay [1] relates to promyelo/monocytic cell line U937. Briefly: MTT cell proliferation, U937. As to conditions: for growth inhibition by free active principle: stated in the U937/HL-60 context. How it is done: MCF7, U937, HL-60 and HT29 cell lines were purchased from the American […] Culture Collection (Rockville, […].). MCF7 cells were grown in DMEM/F12 supplemented with 5% FBS, while U937 and HL-60 were grown in RPMI-1640 supplemented with 10% (v/v) foetal bovine serum.
Approximately 1000 cells (MCF7 and HT29) and 500 cells (U937 and HL-60) per well were used in 96-well plates and were treated as indicated in the examples. At the end of the experiment, the anti-proliferative effect was measured with 3-(4,5-dimethylthiazol-2-yl)-2,5-diphenyltetrazolium bromide (MTT). The blank value, corresponding to wells containing all the components but cells, was subtracted from the absorbance values obtained.

Assay [2] has the same test system. The experiment in a line: Cell cycle perturbation by flow cytometry, U937. The following applies: U937, 3 days; mixed ester 0.1 mg/ml, BA 0.2 mM, RA 10^−5 M. How it is done:
The evaluation was performed by flow cytometry (panels a, b, c) after 6 days of continuous treatment with mixed ester at 0.1 or 1 mg/ml concentrations and was compared with the effect on cell growth determined by a colorimetric method (MTT), described by the curve -●-.
The effect on cell cycle and on cell proliferation has been assessed. The assessment has been performed by flow cytometry after 3 days of treatment with the mixed ester of the invention at 0.1 mg/ml concentration, or with butyric acid or retinoic acid at concentrations of 0.2 mM and 10^−5 M, respectively. Cell cycle perturbations induced by these compounds are related to the effect on cell proliferation (ordinate axis) exerted by identical concentrations of the drugs and expressed as percentage of the control (CTR) represented by cells cultured in medium alone. […] CTR: control. Panel a): (Go=45%; S=46%), panel b): (Go=44%; S=45%); panel c) (Go=43%; S=45%); panel d): (Go=72%; S=22%); panel e) (Go=41%; S=46%), panel f): (Go=94%; S=2%).
To evaluate cell cycle alterations, cells were re-suspended in a solution containing only propidium iodide, Rnase and Nonidet P40 and the fluorescence was measured using a FACScan flow cytometer.

The test system of another assay is U937 cells. Briefly: Expression of membrane antigens by flow cytometry (FACS), U937. As to conditions: U937, 3 days; mixed ester 0.1 mg/ml, butyric acid 0.2 mM, retinoic acid 10^−5M. The method, then:
Expression of CD44, CD11a, CD11b, CD18 antigens was measured with specific murine monoclonal antibodies and secondary anti-mouse antibodies conjugated to FITC. After immunofluorescence, cells were incubated in a solution containing propidium iodide (PI) (5 mg/ml), Rnase (10 kU/ml), and Nonidet P40 (0.005%). The fluorescence relative to PI was measured using a FACScan flow cytometer (Becton Dickinson) equipped with an argon laser at 488 nm excitation wavelength and a 610 nm filter. The fluorescence signal was collected in linear and logaritmic modes. Data were evaluated using the LYSIS II software.
To check whether the block of cell growth was accompanied by activation of differentiation, the selected experimental model consists of the U937 promyelo/monocytic cell line, in which the effect of mixed esters on a series of myelocyte/macrophage specific differentiation markers (CD11a, CD11b and CD18) has been studied. The resulting effect has been directly compared with that of the two active principles. […] The results have been compared with those obtained with butyric and retinoic acids at the same concentrations as in the mixed ester (respectively 0.2 mM and […]). Since the time of treatment was reduced to 3 days in these experiments, the effects on growth and cell cycle were also measured.
In table 2 are indicated the percentages of expression measured by FACS of some membrane antigens in U937 cells treated with the esters of the invention and with the two non-esterified active principles. For each treatment the control has been repeated and is then indicated by the respective superscript.
The evaluation was performed by flow cytometry after that the promyelo/monocytic U937 cell line was treated for 3 days with mixed ester at 0.1 mg/ml concentration, butyric acid at 0.2 mM concentration or retinoic acid at 10^−5M concentration. Human lymphocytes were used as negative control for the expression of the antigen under examination.
A general note: A flow cytometer gives signals particle by particle.

Each structure is given as a SMILES string.

Take `CC1=C(/C=C/C(C)=C/C=C/C(C)=C/C(=O)O)C(C)(C)CCC1` [retinoic acid, Retinoic acid]: the “growth inhibition by free active principle” value in assay [1] (RA 10^−4 M) is recorded as ~100%. In addition, in assay [2], the “cells blocked in G0/1 (Go) phase” value was determined as 94% and the “cells in S phase” value came to 2%. In addition, in the assay with U937 cells, the CD11a expression is on record as 91%, the CD11b expression is listed as 28%, the CD18 expression is recorded as 83% and the CD44 expression is listed as 97%.

Consider `CCCC(=O)O` [butyric acid, Butyric Acid], for which the “growth inhibition by free active principle” value in assay [1] (BA 2 mM) was ~100%. Also, the “anti-proliferative effect and cell cycle block” value in assay [1] (U937, 3 days, BA 0.2 mM, RA 10^−5 M) is listed as “totally ineffective”. In assay [2], the “cells blocked in G0/1 (Go) phase” value turned out to be 44% and the “cells in S phase” value is on record as 45%. In addition, in the assay with U937 cells, the CD11a expression amounted to 76%, the CD11b expression stood at 17%, the CD18 expression is 82% and the CD44 expression was 91%.
